Assay results published in PubChem BioAssay (NCI).
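Where inhibition never reached the appropriate level, the endpoint shown equals the highest concentration tested. Otherwise, values were interpolated linearly from a five-concentration, 48-hour dose response in 96-well plates. GI50 = concentration required for 50% inhibition of growth. TGI: concentration producing complete growth inhibition.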

Tests used:
Assay in all cases: NCI tumour cell line growth inhibition, 48 h
786-0 renal = system: 786-0 renal
A498 renal = system: A498 renal
A549 NSCLC = system: A549 NSCLC
ACHN renal = system: ACHN renal
BT-549 breast = system: BT-549 breast
CAKI-1 renal = system: CAKI-1 renal
CCRF-CEM leukemia = system: CCRF-CEM leukemia
COLO 205 colon = system: COLO 205 colon
DU-145 prostate = system: DU-145 prostate
HCC-2998 colon = system: HCC-2998 colon
HCT-116 colon = system: HCT-116 colon
HCT-15 colon = system: HCT-15 colon
HL-60(TB) leukemia = system: HL-60(TB) leukemia
HOP-62 NSCLC = system: HOP-62 NSCLC
HOP-92 NSCLC = system: HOP-92 NSCLC
HS 578T breast = system: HS 578T breast
HT29 colon = system: HT29 colon
IGROV1 ovarian = system: IGROV1 ovarian
K-562 leukemia = system: K-562 leukemia
KM12 colon = system: KM12 colon
LOX IMVI melanoma = system: LOX IMVI melanoma
M14 melanoma = system: M14 melanoma
MALME-3M melanoma = system: MALME-3M melanoma
MCF7 breast = system: MCF7 breast
MDA-MB-231 breast = system: MDA-MB-231 breast
MDA-MB-435 = system: MDA-MB-435
MOLT-4 leukemia = system: MOLT-4 leukemia
NCI-H226 lung = system: NCI-H226 lung
NCI-H23 lung = system: NCI-H23 lung
NCI-H460 lung = system: NCI-H460 lung
NCI-H522 lung = system: NCI-H522 lung
NCI/ADR-RES ovarian = system: NCI/ADR-RES ovarian
OVCAR-3 ovarian = system: OVCAR-3 ovarian
OVCAR-4 ovarian = system: OVCAR-4 ovarian
OVCAR-5 ovarian = system: OVCAR-5 ovarian
OVCAR-8 ovarian = system: OVCAR-8 ovarian
PC-3 prostate = system: PC-3 prostate
RPMI-8226 leukemia = system: RPMI-8226 leukemia
RXF 393 renal = system: RXF 393 renal
SF-268 CNS = system: SF-268 CNS
SF-539 CNS = system: SF-539 CNS
SK-MEL-2 melanoma = system: SK-MEL-2 melanoma
SK-MEL-28 melanoma = system: SK-MEL-28 melanoma
SK-MEL-5 melanoma = system: SK-MEL-5 melanoma
SK-OV-3 ovarian = system: SK-OV-3 ovarian
SN12C renal = system: SN12C renal
SNB-19 CNS = system: SNB-19 CNS
SNB-75 CNS = system: SNB-75 CNS
SR leukemia = system: SR leukemia
SW-620 colon = system: SW-620 colon
T-47D breast = system: T-47D breast
TK-10 renal = system: TK-10 renal
U251 CNS = system: U251 CNS
UACC-257 melanoma = system: UACC-257 melanoma
UACC-62 melanoma = system: UACC-62 melanoma
UO-31 renal = system: UO-31 renal
SF-295 CNS = system: SF-295 CNS

## CCOC(=O)N1C/C(=C/c2ccc(F)cc2)C(=O)/C(=C/c2ccc(F)cc2)C1
786-0 renal
  GI50: 1.69 µM
  TGI: 3.62 µM
A498 renal
  GI50: 2.16 µM
  TGI: 5.12 µM
A549 NSCLC
  GI50: 2.64 µM
  TGI: 8.65 µM
ACHN renal
  GI50: 1.86 µM
  TGI: 3.42 µM
BT-549 breast
  GI50: 1.65 µM
  TGI: 3.09 µM
CAKI-1 renal
  GI50: 3.01 µM
  TGI: 12.1 µM
CCRF-CEM leukemia
  GI50: 0.758 µM
  TGI: 5.64 µM
COLO 205 colon
  GI50: 1.92 µM
  TGI: 3.54 µM
DU-145 prostate
  GI50: 3.48 µM
  TGI: 10.9 µM
HCC-2998 colon
  GI50: 1.84 µM
  TGI: 3.29 µM
HCT-116 colon
  GI50: 0.205 µM
  TGI: 0.397 µM
HCT-15 colon
  GI50: 1.16 µM
  TGI: 3.02 µM
HL-60(TB) leukemia
  GI50: 3.18 µM
  TGI: 10.6 µM
HOP-62 NSCLC
  GI50: 2.1 µM
  TGI: 4.24 µM
HOP-92 NSCLC
  GI50: 1.65 µM
  TGI: 4.64 µM
HS 578T breast
  GI50: 3.13 µM
  TGI: 29 µM
HT29 colon
  GI50: 0.363 µM
  TGI: 1.37 µM
IGROV1 ovarian
  GI50: 2.39 µM
  TGI: 6.12 µM
K-562 leukemia
  GI50: 0.754 µM
  TGI: > 100 µM
KM12 colon
  GI50: 0.641 µM
  TGI: 2.04 µM
LOX IMVI melanoma
  GI50: 0.327 µM
  TGI: 1.1 µM
M14 melanoma
  GI50: 2.07 µM
  TGI: 4.67 µM
MALME-3M melanoma
  GI50: 2.34 µM
  TGI: 5.58 µM
MCF7 breast
  GI50: 0.327 µM
  TGI: 1.39 µM
MDA-MB-231 breast
  GI50: 1.81 µM
  TGI: 4.18 µM
MDA-MB-435
  GI50: 1.22 µM
  TGI: 3.73 µM
MOLT-4 leukemia
  GI50: 2.6 µM
  TGI: 7.84 µM
NCI-H226 lung
  GI50: 3.52 µM
  TGI: 19.8 µM
NCI-H23 lung
  GI50: 2.35 µM
  TGI: 5.67 µM
NCI-H460 lung
  GI50: 1.96 µM
  TGI: 4.56 µM
NCI-H522 lung
  GI50: 1.95 µM
  TGI: 3.98 µM
NCI/ADR-RES ovarian
  GI50: 3.28 µM
  TGI: 21.1 µM
OVCAR-3 ovarian
  GI50: 1.85 µM
  TGI: 3.47 µM
OVCAR-4 ovarian
  GI50: 2.24 µM
  TGI: 6.38 µM
OVCAR-5 ovarian
  GI50: 1.89 µM
  TGI: 3.83 µM
OVCAR-8 ovarian
  GI50: 2.47 µM
  TGI: 10.8 µM
PC-3 prostate
  GI50: 1.85 µM
  TGI: 5.46 µM
RPMI-8226 leukemia
  GI50: 0.201 µM
  TGI: 0.772 µM
RXF 393 renal
  GI50: 1.63 µM
  TGI: 3.11 µM
SF-268 CNS
  GI50: 2.2 µM
  TGI: 5.52 µM
SF-539 CNS
  GI50: 1.76 µM
  TGI: 3.3 µM
SK-MEL-2 melanoma
  GI50: 2.88 µM
  TGI: 6.39 µM
SK-MEL-28 melanoma
  GI50: 1.8 µM
  TGI: 3.35 µM
SK-MEL-5 melanoma
  GI50: 1.36 µM
  TGI: 2.67 µM
SK-OV-3 ovarian
  GI50: 2.22 µM
  TGI: 4.71 µM
SN12C renal
  GI50: 1.59 µM
  TGI: 3.16 µM
SNB-19 CNS
  GI50: 2.08 µM
  TGI: 6.31 µM
SNB-75 CNS
  GI50: 2.6 µM
  TGI: 10.7 µM
SR leukemia
  GI50: 0.341 µM
  TGI: 3.61 µM
SW-620 colon
  GI50: 0.487 µM
  TGI: 1.74 µM
T-47D breast
  GI50: 2.82 µM
  TGI: 7.97 µM
TK-10 renal
  GI50: 2.87 µM
  TGI: 6.99 µM
U251 CNS
  GI50: 1.19 µM
  TGI: 2.55 µM
UACC-257 melanoma
  GI50: 2.86 µM
  TGI: 9.65 µM
UACC-62 melanoma
  GI50: 1.61 µM
  TGI: 3.39 µM
UO-31 renal
  GI50: 1.53 µM
  TGI: 3.07 µM

## O=C1C=CC(=O)N1C1CCCCCCCCCCC1
786-0 renal
  GI50: 16.1 µM
  TGI: 29.7 µM
A498 renal
  GI50: 16.5 µM
  TGI: > 93.7 µM
A549 NSCLC
  GI50: 32.8 µM
  TGI: > 100 µM
ACHN renal
  GI50: 2.73 µM
  TGI: 7.69 µM
BT-549 breast
  GI50: 11.3 µM
  TGI: 24.6 µM
CAKI-1 renal
  GI50: 5.95 µM
  TGI: 16.3 µM
CCRF-CEM leukemia
  GI50: 0.939 µM
  TGI: 4.93 µM
COLO 205 colon
  GI50: 2.78 µM
  TGI: 8.16 µM
DU-145 prostate
  GI50: 13.9 µM
  TGI: 27.2 µM
HCC-2998 colon
  GI50: 28.9 µM
  TGI: > 73.8 µM
HCT-116 colon
  GI50: 2.15 µM
  TGI: 4.94 µM
HCT-15 colon
  GI50: 3.72 µM
  TGI: 14.9 µM
HL-60(TB) leukemia
  GI50: 5.25 µM
  TGI: 15.9 µM
HOP-62 NSCLC
  GI50: 31.5 µM
  TGI: > 100 µM
HOP-92 NSCLC
  GI50: 2.12 µM
  TGI: 7.72 µM
HS 578T breast
  GI50: 17.8 µM
  TGI: > 65.3 µM
HT29 colon
  GI50: 7.86 µM
  TGI: 26.4 µM
IGROV1 ovarian
  GI50: 13.6 µM
  TGI: > 49.2 µM
K-562 leukemia
  GI50: 2.93 µM
  TGI: 12.8 µM
KM12 colon
  GI50: 41.2 µM
  TGI: > 100 µM
LOX IMVI melanoma
  GI50: 2.44 µM
  TGI: 6.72 µM
M14 melanoma
  GI50: 10.4 µM
  TGI: 25.8 µM
MALME-3M melanoma
  GI50: 5.07 µM
  TGI: 15.8 µM
MCF7 breast
  GI50: 3.58 µM
  TGI: 16.3 µM
MDA-MB-231 breast
  GI50: 14.5 µM
  TGI: 30 µM
MDA-MB-435
  GI50: 13.7 µM
  TGI: 28.5 µM
MOLT-4 leukemia
  GI50: 3.28 µM
  TGI: 20.1 µM
NCI-H226 lung
  GI50: 9.75 µM
  TGI: 24.3 µM
NCI-H23 lung
  GI50: 19.1 µM
  TGI: 47.5 µM
NCI-H460 lung
  GI50: 81.1 µM
  TGI: > 100 µM
NCI-H522 lung
  GI50: 1.7 µM
  TGI: 3.37 µM
NCI/ADR-RES ovarian
  GI50: 30.6 µM
  TGI: > 100 µM
OVCAR-3 ovarian
  GI50: 6.4 µM
  TGI: 16.2 µM
OVCAR-4 ovarian
  GI50: 11.5 µM
  TGI: 24.2 µM
OVCAR-5 ovarian
  GI50: 19.8 µM
  TGI: 48.7 µM
OVCAR-8 ovarian
  GI50: 13.9 µM
  TGI: 27.4 µM
PC-3 prostate
  GI50: 14.2 µM
  TGI: 30.9 µM
RPMI-8226 leukemia
  GI50: 4.91 µM
  TGI: 34 µM
RXF 393 renal
  GI50: 4.96 µM
  TGI: 17.1 µM
SF-268 CNS
  GI50: 19.2 µM
  TGI: 51.8 µM
SF-295 CNS
  GI50: 78.7 µM
  TGI: > 100 µM
SF-539 CNS
  GI50: 15.3 µM
  TGI: 29.4 µM
SK-MEL-2 melanoma
  GI50: 16.4 µM
  TGI: 33.8 µM
SK-MEL-28 melanoma
  GI50: 14.5 µM
  TGI: 28.3 µM
SK-MEL-5 melanoma
  GI50: 16.4 µM
  TGI: 37 µM
SK-OV-3 ovarian
  GI50: > 65.5 µM
  TGI: > 100 µM
SN12C renal
  GI50: 15.6 µM
  TGI: 33 µM
SNB-19 CNS
  GI50: > 84.6 µM
  TGI: > 100 µM
SNB-75 CNS
  GI50: 12.7 µM
  TGI: > 79.9 µM
SR leukemia
  GI50: 2.23 µM
  TGI: 23.8 µM
SW-620 colon
  GI50: 2.59 µM
  TGI: 8.14 µM
T-47D breast
  GI50: 3.08 µM
  TGI: 11.3 µM
TK-10 renal
  GI50: 3.35 µM
  TGI: 11.8 µM
U251 CNS
  GI50: 27 µM
  TGI: > 86.9 µM
UACC-257 melanoma
  GI50: 13 µM
  TGI: 27.2 µM
UACC-62 melanoma
  GI50: 14.7 µM
  TGI: 28.5 µM
UO-31 renal
  GI50: 3.42 µM
  TGI: 14.2 µM
